Molecules are shown by their SMILES.

`CC(c1nc2ccccc2c(=O)n1-c1ccc(F)cc1)N(Cc1ccccn1)C(=O)Cc1ccc(C(F)(F)F)cc1.Cl` (stereo not shown) came in with a melting point of 159.2 °C.

The melting point is the temperature, or range, at which the solid turns liquid.

The values are drawn from patent publication US7053215B2, “Substituted Quinazolin-4(3H)-one compounds, compositions, and methods for their use” (Amgen SF, LLC, priority 2000, dated 2006).
